Results reported in patent US20250282799A1, “SUBSTITUTED PYRIDO[4,3-d]PYRIMIDINES AS KRAS MODULATORS” (Alterome Therapeutics, Inc., priority 2023, published 2025).

What follows are compounds tested on KRAS G12V dependent lung adenocarcinoma cell line, NCI-H441 (assay: Cellular pERK (Thr202/Tyr204) FRET/HTRF assay). Conditions: Homo sapiens, NCI-H441, cellular pERK (Thr202/Tyr204) HTRF, NCI-H441 cells.
Format: cell-based
Outline: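 Using a mix-and-read HTRF kit, phospho-ERK (Thr202/Tyr204) was detected in NCI-H441 lysates following 1 hr compound incubation at 37 °C, 5% CO2. Cells had been seeded overnight beforehand, and IC50 was derived by curve fitting.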
An IC50 of less than 50 nM was found for `[2H]C([2H])(Oc1nc(N2CCC=C[C@H]3[C@H](F)[C@H]32)c2cnc(-c3cccc4ccc(F)c(C#C)c34)c(F)c2n1)[C@@]12CCCN1C[C@H](F)C2` [Example 147, 7-(8-Ethynyl-7-fluoronaphthalen-1-yl)-8-fluoro-4-((1S,7R,8S)-8-fluoro-2-azabicyclo[5.1.0]oct-5-en-2-yl)-2-(((2R,7aS)-2-fluorotetrahydro-1H-pyrrolizin-7a(5H)-yl)methoxy-d2)pyrido[4,3-d]pyrimidine] in this work. An IC50 of less than 50 nM was found for `[2H]C([2H])(F)Oc1c(F)ccc2cc(N)cc(-c3ncc4c(N5CCCC[C@H]6[C@H](F)[C@H]65)nc(OC([2H])([2H])[C@@]56CCCN5C[C@H](F)C6)nc4c3F)c12` [Example 100, 6-Fluoro-4-(8-fluoro-4-((1S,7R,8S)-8-fluoro-2-azabicyclo[5.1.0]octan-2-yl)-2-(((2R,7aS)-2-fluorotetrahydro-1H-pyrrolizin-7a(5H)-yl)methoxy-d2)pyrido[4,3-d]pyrimidin-7-yl)-5-(fluoromethoxy-d2)naphthalen-2-amine] in this work. An IC50 of less than 50 nM was found for `Nc1cc(Cl)c(C(F)(F)F)c(-c2ncc3c(N4CCCC[C@H]5[C@H](F)[C@H]54)nc(OC[C@]45C/C(=C/F)CN4CCC54CC4)nc3c2F)c1` [Example 406, 3-chloro-5-(8-fluoro-4-((1S,7R,8S)-8-fluoro-2-azabicyclo[5.1.0]octan-2-yl)-2-(((R,Z)-6′-(fluoromethylene)tetrahydrospiro [cyclopropane-1,1′-pyrrolizin]-7a′(5′H)-yl)methoxy)pyrido[4,3-d]pyrimidin-7-yl)-4-(trifluoromethyl)aniline] in this work. An IC50 of 500 to 10000 nM was found for `[2H]C([2H])(Oc1nc(N2CCOC[C@@H]3[C@@H](F)[C@@H]32)c2cc(F)c(-c3cc(N)cc(C4CC4)c3C(F)(F)F)c(F)c2n1)[C@@]12CCCN1C[C@H](F)C2` [Example 164, 3-cyclopropyl-5-(6,8-difluoro-4-((1R,7R,8R)-8-fluoro-5-oxa-2-azabicyclo[5.1.0]octan-2-yl)-2-(((2R,7aS)-2-fluorotetrahydro-1H-pyrrolizin-7a(5H)-yl)methoxy-d2)quinazolin-7-yl)-4-(trifluoromethyl)aniline] in this work. An IC50 of less than 50 nM was found for `[2H]C([2H])(F)Oc1c(F)c(F)cc2cncc(-c3ncc4c(N5CCOC[C@H]6[C@H](F)[C@H]65)nc(OC([2H])([2H])[C@@]56CCCN5C[C@H](F)C6)nc4c3F)c12` [Example 135, (1S,7S,8S)-2-(7-(6,7-difluoro-5-(fluoromethoxy-d2)isoquinolin-4-yl)-8-fluoro-2-(((2R,7aS)-2-fluorotetrahydro-1H-pyrrolizin-7a(5H)-yl)methoxy-d2)pyrido[4,3-d]pyrimidin-4-yl)-8-fluoro-5-oxa-2-azabicyclo[5.1.0]octane] in this work. An IC50 of 50 to 500 nM was found for `[2H]C([2H])([2H])Oc1c(F)c(F)c(F)c2cc(N)cc(-c3ncc4c(N5CCC=C[C@H]6[C@H](F)[C@H]65)nc(OC([2H])([2H])[C@@]56CCCN5C[C@H](F)C6)nc4c3F)c12` [Example 148, 6,7,8-Trifluoro-4-(8-fluoro-4-((1S,7R,8S)-8-fluoro-2-azabicyclo[5.1.0]oct-5-en-2-yl)-2-(((2R,7aS)-2-fluorotetrahydro-1H-pyrrolizin-7a(5H)-yl)methoxy-d2)pyrido[4,3-d]pyrimidin-7-yl)-5-(methoxy-d3)naphthalen-2-amine] in this work. An IC50 of less than 50 nM was found for `[2H]C([2H])([2H])Oc1c(F)cc(F)c2cc(N)cc(-c3ncc4c(N5CCCC[C@H]6[C@H](F)[C@H]65)nc(OC([2H])([2H])[C@@]56CCCN5C[C@H](F)C6)nc4c3F)c12` [Example 141, 6,8-difluoro-4-(8-fluoro-4-((1S,7R,8S)-8-fluoro-2-azabicyclo[5.1.0]octan-2-yl)-2-(((2R,7aS)-2-fluorotetrahydro-1H-pyrrolizin-7a(5H)-yl)methoxy-d2)pyrido[4,3-d]pyrimidin-7-yl)-5-(methoxy-d3)naphthalen-2-amine] in this work. An IC50 of less than 50 nM was found for `[2H]C([2H])(Oc1nc(N2CCOC[C@H]3[C@H](F)[C@H]32)c2cnc(-c3cc(N)cc4ccc(F)c(C#C)c34)c(F)c2n1)[C@@]12CCCN1C[C@H](CF)C2` (single isomer, unassigned) [Example 266] in this work. An IC50 of 50 to 500 nM was found for `[2H]C([2H])([2H])Oc1c(F)cc(F)c2cccc(-c3ncc4c(N5CCCC[C@H]6[C@H](F)[C@H]65)nc(OC([2H])([2H])[C@@]56CCCN5C[C@H](F)C6)nc4c3F)c12` [Example 140, 7-(5,7-difluoro-8-(methoxy-d3)naphthalen-1-yl)-8-fluoro-4-((1S,7R,8S)-8-fluoro-2-azabicyclo[5.1.0]octan-2-yl)-2-(((2R,7aS)-2-fluorotetrahydro-1H-pyrrolizin-7a(5H)-yl)methoxy-d2)pyrido[4,3-d]pyrimidine] in this work. An IC50 of less than 50 nM was found for `C#Cc1c(F)ccc2cc(N)cc(-c3ncc4c(N5CCOC[C@H]6[C@H](F)[C@H]65)nc(OC[C@@]56CCCN5C(C)(C)[C@H](F)C6)nc4c3F)c12` [Example 262, 5-ethynyl-6-fluoro-4-(8-fluoro-2-(((2R,7aS)-2-fluoro-3,3-dimethyltetrahydro-1H-pyrrolizin-7a(5H)-yl)methoxy)-4-((1S,7S,8S)-8-fluoro-5-oxa-2-azabicyclo[5.1.0]octan-2-yl)pyrido[4,3-d]pyrimidin-7-yl)naphthalen-2-amine] in this work. An IC50 of less than 50 nM was found for `[2H]C([2H])(Oc1nc(N2CCOC[C@H]3[C@H](F)[C@H]32)c2cnc(-c3cc(N)cc4ccc(F)c(C#C)c34)c(F)c2n1)[C@@]12CCCN1C[C@H](CC#N)C2` (single isomer, unassigned) [Example 315] in this work. An IC50 of less than 50 nM was found for `C#Cc1c(F)ccc2cc(O)cc(-c3ncc4c(N5CCOC[C@H]6[C@H](F)[C@H]65)nc(OC[C@@H]5CCCN5C)nc4c3F)c12` [Example 285, 5-ethynyl-6-fluoro-4-(8-fluoro-4-((1S,7S,8S)-8-fluoro-5-oxa-2-azabicyclo[5.1.0]octan-2-yl)-2-(((S)-1-methylpyrrolidin-2-yl)methoxy)pyrido[4,3-d]pyrimidin-7-yl)naphthalen-2-ol] in this work. An IC50 of less than 50 nM was found for `[2H]C([2H])(F)Oc1c(F)ccc2cc(N)cc(-c3ncc4c(N5CCOC[C@H]6[C@H](F)[C@H]65)nc(OC[C@@]56CCCN5C[C@H](C)C6)nc4c3F)c12` (single isomer, unassigned) [Example 215] in this work.

Same assay, conditions: Homo sapiens, NCI-H441, cellular pERK HTRF, NCI-H441 (KRAS G12V) cells
An IC50 of 500 to 10000 nM was found for `[2H]C([2H])(Oc1nc(N2CCOC[C@H]3[C@H](F)[C@H]32)c2cnc(-c3cc(N)cc4ccc(F)c(C#C)c34)c(C3CC3)c2n1)[C@@]12CCCN1C[C@H](F)C2` [Example 452, 4-(8-cyclopropyl-4-((1S,7S,8S)-8-fluoro-5-oxa-2-azabicyclo[5.1.0]octan-2-yl)-2-(((2R,7aS)-2-fluorotetrahydro-1H-pyrrolizin-7a(5H)-yl)methoxy-d2)pyrido[4,3-d]pyrimidin-7-yl)-5-ethynyl-6-fluoronaphthalen-2-amine] in this work. An IC50 of less than 50 nM was found for `[2H]C([2H])(Oc1nc(N2CCCC[C@H]3[C@H](F)[C@H]32)c2cnc(-c3cc(O)cc4ccc(F)c(C#C)c34)c(F)c2n1)[C@@]12CCCN1[C@H](C)[C@H](F)C2` [Example 474, 5-ethynyl-6-fluoro-4-(8-fluoro-2-(((2R,3R,7aS)-2-fluoro-3-methyltetrahydro-1H-pyrrolizin-7a(5H)-yl)methoxy-d2)-4-((1S,7R,8S)-8-fluoro-2-azabicyclo[5.1.0]octan-2-yl)pyrido[4,3-d]pyrimidin-7-yl)naphthalen-2-ol] in this work.

Same assay, conditions: Homo sapiens, NCI-H441, pERK HTRF, NCI-H441 cells (KRAS G12V)
An IC50 of less than 50 nM was found for `C#Cc1c(F)ccc2cc(O)cc(-c3ncc4c(N5CCC6CC6CC5)nc(OC[C@@]56CCCN5C[C@H](F)C6)nc4c3F)c12` (stereo partly drawn) [Example 3, 4-(4-(4-Azabicyclo[5.1.0]octan-4-yl)-8-fluoro-2-(((2R,7aS)-2-fluorotetrahydro-1H-pyrrolizin-7a(5H)-yl)methoxy)pyrido[4,3-d]pyrimidin-7-yl)-5-ethynyl-6-fluoronaphthalen-2-ol] in this work. An IC50 of 50 to 500 nM was found for `[2H]C1([2H])CCO[C@@H]2C[C@@H]2N1c1nc(OC([2H])([2H])[C@@]23CCCN2C[C@H](F)C3)nc2c(F)c(-c3cc(N)cc4cc(F)c(F)c(C#C)c34)ncc12` [Example 26, 4-(4-((1R,7S)-2-Oxa-6-azabicyclo[5.1.0]octan-6-yl-5,5-d2)-8-fluoro-2-(((2R,7aS)-2-fluorotetrahydro-1H-pyrrolizin-7a(5H)-yl)methoxy-d2)pyrido[4,3-d]pyrimidin-7-yl)-5-ethynyl-6,7-difluoronaphthalen-2-amine] in this work. An IC50 of less than 50 nM was found for `[2H]C([2H])(Oc1nc(N2CCCC[C@H]3[C@H](F)[C@H]32)c2cnc(-c3cc(N)cc4cc(F)c(F)c(OCF)c34)c(F)c2n1)[C@@]12CCCN1C[C@H](F)C2` [Example 66, 6,7-Difluoro-4-(8-fluoro-4-((1S,7R,8S)-8-fluoro-2-azabicyclo[5.1.0]octan-2-yl)-2-(((2R,7aS)-2-fluorotetrahydro-1H-pyrrolizin-7a(5H)-yl)methoxy-d2)pyrido[4,3-d]pyrimidin-7-yl)-5-(fluoromethoxy) naphthalen-2-amine] in this work.

Same assay, conditions: cellular pERK (Thr202/Tyr204) HTRF, NCI-H441 cells
An IC50 of 500 to 10000 nM was found for `[2H]C([2H])(Oc1nc(N2CCOC[C@H]3[C@H](F)[C@H]32)c2cc(Cl)c(-c3cc(N)cc4ccc(F)c(C#C)c34)c(F)c2n1)[C@@]12CCCN1C[C@H](F)C2` (atropisomer, axis not shown; (aS)) [Example 361, 4-((S)-6-chloro-8-fluoro-4-((1S,7S,8S)-8-fluoro-5-oxa-2-azabicyclo[5.1.0]octan-2-yl)-2-(((2R,7aS)-2-fluorotetrahydro-1H-pyrrolizin-7a(5H)-yl)methoxy-d2)quinazolin-7-yl)-5-ethynyl-6-fluoronaphthalen-2-amine] in this work.
